Laboratory results as given in PubChem BioAssay AID328 (DTP/NCI, 2004).
Toxic doses and inconclusive results are not listed.

Assays:
[1] = system: BDF1 mice, P388 leukemia ip; experiment: NCI In Vivo Anticancer Drug Screen. Data for tumor model P388 Leukemia (intraperitoneal) in B6D2F1 (BDF1) mice; conditions: endpoint: mean survival time, higher = longer survival
How it was run: (§1)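 Antitumour effect was judged in vivo: survival in drug-treated mice, normalised to that of vehicle-dosed controls, gives the reported T/C.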

[2] = system: BDF1 mice, P388 leukemia ip, median survival T/C; experiment: as above; conditions: endpoint: median survival time, higher = longer survival
How it was run: as §1

Q: Which T/C ([1]; dose: 50.0 mg/kg/injection, schedule: Q02DX003 (ip), vehicle: saline) does the source give for `CC1=C(C)C(=O)O[C@@H]([C@](C)(O)[C@]2(O)CC[C@@]3(O)[C@@H]4C[C@H]5O[C@]56CC=CC(=O)[C@]6(C)[C@H]4CC[C@]23C)C1` here?
A: 114 % of control

Q: What about the T/C ([1]; dose: 100.0 mg/kg/injection, schedule: Q02DX003 (ip), vehicle: saline) of the same compound?
A: 117 % of control

Q: Which T/C ([2]; dose: 25.0 mg/kg/injection, schedule: Q04DX003 (ip), vehicle: water) does the source give for `CCN(CC)CCCC(C)NC(=O)c1cccc2c(N)cccc12` (configuration not stated) here?
A: 91 % of control

Q: What about the T/C ([2]; dose: 50.0 mg/kg/injection, schedule: Q04DX003 (ip), vehicle: water) of the same compound?
A: 106 % of control

Q: And the T/C ([2]; dose: 100.0 mg/kg/injection, schedule: Q04DX003 (ip), vehicle: water)?
A: 97 % of control

Q: What about the T/C ([2]; dose: 200.0 mg/kg/injection, schedule: Q04DX003 (ip), vehicle: water) of the same compound?
A: 100 % of control

Q: What about the T/C ([2]; dose: 400.0 mg/kg/injection, schedule: Q04DX003 (ip), vehicle: water) of the same compound?
A: 104 % of control

Q: And the T/C ([1]; dose: 25.0 mg/kg/injection, schedule: Q01DX009 (ip), vehicle: water)?
A: 98 % of control

Q: What about the T/C ([1]; dose: 50.0 mg/kg/injection, schedule: Q01DX009 (ip), vehicle: water) of the same compound?
A: 106 % of control

Q: What about the T/C ([1]; dose: 100.0 mg/kg/injection, schedule: Q01DX009 (ip), vehicle: water) of the same compound?
A: 93 % of control

Q: What about the T/C ([1]; dose: 200.0 mg/kg/injection, schedule: Q01DX009 (ip), vehicle: water) of the same compound?
A: 91 % of control

Q: And the T/C ([1]; dose: 400.0 mg/kg/injection, schedule: Q01DX009 (ip), vehicle: water)?
A: 110 % of control

Q: How did the T/C ([2]; dose: 0.75 mg/kg/injection, schedule: Q01DX001 (ip), vehicle: saline) turn out when `CCC1(O)CC(OC2CC(N(C)C)C(OC3CC4OC5CC(=O)C(C)OC5OC4C(C)O3)C(C)O2)c2c(cc3c(c2O)C(=O)c2c(O)ccc(O)c2C3=O)C1C(=O)OC` (configuration not stated) was run?
A: 104 % of control

Q: And the T/C ([2]; dose: 0.86 mg/kg/injection, schedule: Q04DX003 (ip), vehicle: water)?
A: 121 % of control

Q: And the T/C ([2]; dose: 1.25 mg/kg/injection, schedule: Q01DX001 (ip), vehicle: saline)?
A: 114 % of control

Q: What about the T/C ([2]; dose: 1.3 mg/kg/injection, schedule: Q04DX003 (ip), vehicle: water) of the same compound?
A: 157 % of control

Q: What about the T/C ([2]; dose: 1.5 mg/kg/injection, schedule: Q01DX001 (ip), vehicle: saline) of the same compound?
A: 109 % of control

Q: What about the T/C ([2]; dose: 1.73 mg/kg/injection, schedule: Q04DX003 (ip), vehicle: water) of the same compound?
A: 155 % of control

Q: What about the T/C ([2]; dose: 2.16 mg/kg/injection, schedule: Q04DX003 (ip), vehicle: water) of the same compound?
A: 191 % of control

Q: What about the T/C ([2]; dose: 2.4 mg/kg/injection, schedule: Q04DX003 (ip), vehicle: water) of the same compound?
A: 165 % of control

Q: What about the T/C ([2]; dose: 5.0 mg/kg/injection, schedule: Q01DX001 (ip), vehicle: saline) of the same compound?
A: 166 % of control

Q: What about the T/C ([2]; dose: 10.0 mg/kg/injection, schedule: Q01DX001 (ip), vehicle: saline) of the same compound?
A: 195 % of control

Q: And the T/C ([1]; dose: 0.09 mg/kg/injection, schedule: Q01DX010 (ip), vehicle: saline)?
A: 111 % of control

Q: What about the T/C ([1]; dose: 0.38 mg/kg/injection, schedule: Q01DX010 (ip), vehicle: saline) of the same compound?
A: 95 % of control

Q: And the T/C ([1]; dose: 1.5 mg/kg/injection, schedule: Q01DX010 (ip), vehicle: saline)?
A: 87 % of control

Q: With `O=c1[nH]c(=O)n(C2CC(O)C(CO)O2)cc1C(F)(F)F` (configuration not stated) as the compound, how does the T/C ([2]; dose: 62.5 mg/kg/injection, schedule: Q01DX009 (ip), vehicle: Klucel (hydroxypropylcellulose) (HPC)) read?
A: 104 % of control

Q: And the T/C ([2]; dose: 125.0 mg/kg/injection, schedule: Q01DX009 (ip), vehicle: Klucel (hydroxypropylcellulose) (HPC))?
A: 118 % of control

Q: What about the T/C ([2]; dose: 250.0 mg/kg/injection, schedule: Q01DX009 (ip), vehicle: Klucel (hydroxypropylcellulose) (HPC)) of the same compound?
A: 122 % of control

Q: What about the T/C ([2]; dose: 500.0 mg/kg/injection, schedule: Q01DX009 (ip), vehicle: Klucel (hydroxypropylcellulose) (HPC)) of the same compound?
A: 90 % of control

Q: For `O=c1nc(Oc2ccccc2)nc2ccccn12`, which T/C ([2]; dose: 50.0 mg/kg/injection, schedule: Q01DX009 (ip), vehicle: saline with Tween-80) is on record?
A: 105 % of control

Q: And the T/C ([2]; dose: 100.0 mg/kg/injection, schedule: Q01DX009 (ip), vehicle: saline with Tween-80)?
A: 97 % of control

Q: What about the T/C ([2]; dose: 200.0 mg/kg/injection, schedule: Q01DX009 (ip), vehicle: saline with Tween-80) of the same compound?
A: 102 % of control
